According to ChEMBL document CHEMBL1146899, “Redefining the structure-activity relationships of 2,6-methano-3-benzazocines. 4. Opioid receptor binding properties of 8-[N-(4'-phenyl)-phenethyl)carboxamido] analogues of cyclazocine and ethylketocycalzocine” (J Med Chem, 2006):
Activity calls are given as the source filed them. The calls are words filed in the database; no cut-off is given here.

Legend:
[1] = target: Mu-type opioid receptor (Homo sapiens, UniProt P35372); test: Displacement of [3H]DAMGO from human mu opioid receptor expressed in CHO cells; format: cell-based
[2] = target: Kappa-type opioid receptor (Homo sapiens, UniProt P41145); test: biochemical; format: cell-based, CHO
Description: Displacement of [3H]U-69593 from human kappa opioid receptor expressed in CHO cells

[3] = target: Delta-type opioid receptor (Homo sapiens, UniProt P41143); test: Displacement of [3H]naltrindole from human delta opioid receptor expressed in CHO cells; format: cell-based
[4] = test system: Mus musculus; test: Antinociceptive activity in mouse at 1 mg/kg, ip; format: functional, organism-based; parameters: dose 1 mg/kg

Mu-type opioid receptor, sequence (P35372 whole entry): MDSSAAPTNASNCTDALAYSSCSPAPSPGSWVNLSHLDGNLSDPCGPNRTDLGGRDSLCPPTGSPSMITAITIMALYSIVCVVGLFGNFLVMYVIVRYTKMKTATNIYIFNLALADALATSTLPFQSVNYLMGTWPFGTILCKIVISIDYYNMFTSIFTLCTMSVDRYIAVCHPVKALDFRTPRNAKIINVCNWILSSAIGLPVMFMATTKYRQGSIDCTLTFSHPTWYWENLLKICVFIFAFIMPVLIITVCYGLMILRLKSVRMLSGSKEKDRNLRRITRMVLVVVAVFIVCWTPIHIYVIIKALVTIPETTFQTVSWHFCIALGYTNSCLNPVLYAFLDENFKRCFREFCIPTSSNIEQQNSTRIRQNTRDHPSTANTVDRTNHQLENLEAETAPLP
Kappa-type opioid receptor, sequence (P41145 whole entry): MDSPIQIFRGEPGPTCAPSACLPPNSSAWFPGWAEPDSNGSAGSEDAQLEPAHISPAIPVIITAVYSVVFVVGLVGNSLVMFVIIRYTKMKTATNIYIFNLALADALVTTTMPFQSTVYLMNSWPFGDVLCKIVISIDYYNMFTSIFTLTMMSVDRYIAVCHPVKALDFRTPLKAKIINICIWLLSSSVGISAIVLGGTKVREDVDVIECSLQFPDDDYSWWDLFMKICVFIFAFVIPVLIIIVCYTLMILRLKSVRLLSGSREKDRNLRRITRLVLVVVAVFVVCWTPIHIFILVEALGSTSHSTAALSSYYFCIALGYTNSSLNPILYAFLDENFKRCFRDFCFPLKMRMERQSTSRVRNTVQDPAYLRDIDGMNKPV
Delta-type opioid receptor, sequence (P41143 whole entry): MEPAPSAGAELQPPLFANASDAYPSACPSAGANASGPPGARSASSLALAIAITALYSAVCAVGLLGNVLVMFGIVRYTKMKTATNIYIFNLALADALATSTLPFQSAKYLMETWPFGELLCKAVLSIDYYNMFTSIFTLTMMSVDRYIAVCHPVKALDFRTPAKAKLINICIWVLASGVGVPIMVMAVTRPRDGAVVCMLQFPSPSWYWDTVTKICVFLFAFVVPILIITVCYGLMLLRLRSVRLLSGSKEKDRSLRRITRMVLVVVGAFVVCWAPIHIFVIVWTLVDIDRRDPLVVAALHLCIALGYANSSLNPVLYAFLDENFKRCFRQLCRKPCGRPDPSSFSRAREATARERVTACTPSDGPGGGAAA

Structure (SMILES)	Ki [1]	Ki [2]	Ki [3]	Activity [4]
C[C@H]1C2Cc3ccc(C(=O)Nc4ccccc4)cc3[C@@]1(C)CCN2CC1CC1	840 nM	270 nM	2100 nM	
C[C@H]1C2Cc3ccc(C(N)=O)cc3[C@@]1(C)CCN2CC1CC1			5.2 nM	Active
CC[C@@]12CCN(CC3CC3)C(C(=O)c3ccc(C(N)=O)cc31)[C@@H]2C	2.1 nM	0.47 nM	23 nM	
C[C@H]1C2Cc3ccc(C(=O)NCc4ccc(-c5ccccc5)cc4)cc3[C@@]1(C)CCN2CC1CC1 (mixture of isomers)	11 nM	26 nM	170 nM	
C[C@H]1C2Cc3ccc(C(=O)NCCc4ccccc4)cc3[C@@]1(C)CCN2CC1CC1 (mixture of isomers)	3.5 nM	1.7 nM	59 nM	
C[C@H]1C2Cc3ccc(C(=O)NCCCc4ccccc4)cc3[C@@]1(C)CCN2CC1CC1 (mixture of isomers)	2.5 nM	3 nM	47 nM	
C[C@H]1C2Cc3ccc(C(=O)NCc4ccccc4)cc3[C@@]1(C)CCN2CC1CC1 (mixture of isomers)	27 nM	36 nM	210 nM	
CC[C@@]12CCN(CC3CC3)C(C(=O)c3ccc(C(=O)NCCc4ccc(-c5ccccc5)cc4)cc31)[C@@H]2C (mixture of isomers)	3.1 nM	1.3 nM	3.9 nM	
C[C@H]1C2Cc3ccc(C(=O)Nc4ccc(-c5ccccc5)cc4)cc3[C@@]1(C)CCN2CC1CC1 (mixture of isomers)	18 nM	27 nM	110 nM	
C[C@H]1C2Cc3ccc(C(=O)N(C)CCc4ccc(-c5ccccc5)cc4)cc3[C@@]1(C)CCN2CC1CC1 (racemic)	6.7 nM	11 nM	12 nM	
